According to US9192619B2 (Peking University Third Hospital, priority 2010, dated 2015):
Several values for one entry are separate records, joined by “and”; a condition that tells them apart may be missing. Identical values can stand only once.

Test system: permanent focal cerebral ischemia model (MCAO)
Assay: Permanent focal cerebral ischemia model by middle cerebral artery occlusion (MCAO), infarction size by TTC staining of brain slices
Assay type: in vivo, Sprague Dawley rats
Conditions: single rats, 12 h ischemia
Description: Experimental conditions: Sprague Dawley rats weighing about 250-300 g with a brain tissue volume of 1.5 mL were used. The subjects were divided into eight groups, and each group had eight rats. […] Efficacy validation: two hours after ECS administration and one hour after intraperitoneal injection, a permanent focal cerebral ischemia model was made by middle cerebral artery occlusion (MCAO). The brains of rats from each group were removed 12 hours after cerebral ischemia. The brain slices were obtained by cutting the brain at every 2 mm (5 slices from each rat). Then the slices were stained with 2,3,5-triphenyl-2H-tetrazolium chloride (TTC) for evaluating the cerebral infarction size and the effectiveness of administration of the drug via ECS.

C[N+](C)(C)CCOP(=O)(O)OP(=O)([O-])OC[C@H]1O[C@@H](n2ccc(N)nc2=O)[C@H](O)[C@@H]1O [CDPC, citicoline]
Infarction percentages (CDPC 25 mM via brain ECS (caudate nucleus), 0.2 μL/min, 2 μL, MCAO 2 h after administration): 33.7% and 5.6% and 18.6% and 34.1% and 38.1% and 42% and 24.9% and 22.8%
Infarction percentages (CDPC 40 mM via brain ECS, 0.2 μL/min, 2 μL, MCAO 2 h after administration): 2.3% and 6.7% and 2.2% and 2.9% and 6.9% and 3.6% (2×) and 5.3%
Infarction percentages (CDPC 50 mM via brain ECS, 0.2 μL/min, 2 μL, MCAO 2 h after administration): 1.3% and 5.7% and 3% and 1.7% and 3.7% and 4.8% and 5% and 7.3%
Infarction percentages (CDPC 60 mM via brain ECS, 0.2 μL/min, 2 μL, MCAO 2 h after administration): 2.3% and 3.7% and 3.6% and 1.7% and 6.7% and 8.8% and 3.5% and 4.2%
Infarction percentages (CDPC 75 mM via brain ECS, 0.2 μL/min, 2 μL, MCAO 2 h after administration): 31.2% and 35.8% and 4.0% and 37.8% and 16.1% and 29.8%
Infarction percentages (CDPC 100 mM via brain ECS, 0.2 μL/min, 2 μL, MCAO 2 h after administration): 29.1% and 35.9% and 20.7% and 8.1% and 38.8% and 20.6% and 11.5% and 41.6%
Infarction percentages (CDPC 245 mM via brain ECS, 0.2 μL/min, 2 μL, MCAO 2 h after administration): 24.8% and 51.2% and 14.8% and 20% and 26.7% and 18.1% and 48.3% and 33.4%
Infarction percentages (CDPC 1000 mM intraperitoneal, 1 mL (about 4 mL/kg), 1 mL/min, MCAO 1 h after administration): 30.6% and 26.4% and 10.7% and 5.2% and 25.5% and 27.0% and 33.9% and 32.3%
